Assay results taken from ChEMBL document CHEMBL1128134, “Characterization of a continuous fluorogenic assay for calpain I. Kinetic evaluation of peptide aldehydes, halomethyl ketones and (acyloxy)methyl ketones as inhibitors of the enzyme” (Bioorg Med Chem Lett, 1995).
Square brackets hold non-standard residues; d marks the D form. Peptide text beside a SMILES is read from it. * marks the point of attachment. ξ: configuration not given here. hPhe = N[C@@H](CCc1ccccc1)C(=O)O; ξPhg = NC(C(=O)O)c1ccccc1; Cbz = O=C(OCc1ccccc1)*; ξL = CC(C)CC(N)C(=O)O; CH2Cl = ClC*

Key:
Calpain 1 (Homo sapiens) = Calpain 1 (Homo sapiens) (UniProt P04632+P07384); test: Apparent second order rate constant for inhibition of calpain-1 by fluorogenic assay.; format: protein-complex assay
[1] = biological target: Procathepsin L (Homo sapiens) (UniProt P07711); test: Inhibition of cathepsin L (fluorogenic assay), apparent second order rate constant
Chain of Procathepsin L (Homo sapiens) (P07711 114-333 limits assumed): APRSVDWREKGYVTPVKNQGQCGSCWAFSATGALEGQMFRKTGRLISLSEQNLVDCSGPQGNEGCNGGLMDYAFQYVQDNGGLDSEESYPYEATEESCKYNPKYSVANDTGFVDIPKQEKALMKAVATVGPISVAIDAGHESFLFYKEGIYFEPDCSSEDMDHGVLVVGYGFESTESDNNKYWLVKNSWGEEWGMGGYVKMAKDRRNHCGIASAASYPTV

[2] = biological target: Cathepsin B (Homo sapiens) (UniProt P07858); test: Apparent second order rate constant for inhibition of cathepsin B by fluorogenic assay.
Calpain 1 = Calpain 1 (Homo sapiens, UniProt P07384); test: Inhibition of Calpain 1 by [3H]acetyl-casein assay; format: protein-complex assay
Chain of Calpain 1 (P04632 whole entry): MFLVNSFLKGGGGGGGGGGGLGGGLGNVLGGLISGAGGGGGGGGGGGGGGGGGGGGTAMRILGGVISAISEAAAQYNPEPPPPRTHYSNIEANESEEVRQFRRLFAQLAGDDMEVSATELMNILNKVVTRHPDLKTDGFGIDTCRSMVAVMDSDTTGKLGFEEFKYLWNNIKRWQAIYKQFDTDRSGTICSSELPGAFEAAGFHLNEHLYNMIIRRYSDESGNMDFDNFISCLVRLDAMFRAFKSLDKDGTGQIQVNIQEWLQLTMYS
Chain of Calpain 1 (P07384 whole entry): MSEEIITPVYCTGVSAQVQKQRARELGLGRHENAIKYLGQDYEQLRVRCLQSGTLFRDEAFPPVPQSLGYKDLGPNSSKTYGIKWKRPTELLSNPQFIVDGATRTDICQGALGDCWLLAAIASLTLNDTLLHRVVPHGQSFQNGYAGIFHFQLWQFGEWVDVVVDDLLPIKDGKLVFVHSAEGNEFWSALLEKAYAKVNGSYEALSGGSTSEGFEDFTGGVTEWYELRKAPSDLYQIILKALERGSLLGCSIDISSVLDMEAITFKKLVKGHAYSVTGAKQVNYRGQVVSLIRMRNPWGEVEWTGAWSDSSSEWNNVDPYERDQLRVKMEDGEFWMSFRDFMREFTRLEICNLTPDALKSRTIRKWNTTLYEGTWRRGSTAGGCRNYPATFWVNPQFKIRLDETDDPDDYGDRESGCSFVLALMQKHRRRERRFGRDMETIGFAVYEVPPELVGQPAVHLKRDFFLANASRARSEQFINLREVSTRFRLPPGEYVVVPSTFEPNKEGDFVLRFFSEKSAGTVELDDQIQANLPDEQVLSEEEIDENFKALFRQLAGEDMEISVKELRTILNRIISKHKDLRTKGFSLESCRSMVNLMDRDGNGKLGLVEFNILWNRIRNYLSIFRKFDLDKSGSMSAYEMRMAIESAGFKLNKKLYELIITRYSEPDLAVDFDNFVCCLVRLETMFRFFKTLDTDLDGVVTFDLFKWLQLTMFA

Row | Structure (SMILES) | k obs / 1 (Calpain 1 (Homo sapiens)) [M⁻¹ s⁻¹] | k obs / 1 [1] [M⁻¹ s⁻¹] | k obs / 1 [2] [M⁻¹ s⁻¹] | IC50 (Calpain 1) [nM]
1 | CC(C)C[C@H](NC(=O)[C@H](C)NC(=O)OCc1ccccc1)C(=O)N[C@@H](Cc1ccccc1)C(=O)COC(=O)c1c(F)cccc1F | 19000 | 1600 | 2200 | –
2 | CC(C)C(NC(=O)OCc1ccccc1)C(=O)NC(Cc1ccccc1)C(=O)COC(=O)c1c(Cl)cccc1Cl (configuration not stated) | 11000 | – | – | –
3 | CC(C)C[C@H](NC(=O)OCc1ccccc1)C(=O)N[C@@H](Cc1ccc(O)cc1)C(=O)CBr | < 500 | – | 50 | –
4 | O=C(CNC(=O)C(Cc1ccccc1)NC(=O)OCc1ccccc1)COC(=O)c1c(Cl)cccc1Cl (configuration not stated) | < 500 | – | – | –
5 | O=C[C@H](Cc1ccccc1)NC(=O)C(NC(=O)OCc1ccccc1)c1ccccc1 (some centres not stated) (Cbz-[ξPhg]-Phe-aldehyde) | – | – | – | 100
6 | CC(C)CC(C(=O)NC(Cc1ccccc1)C(=O)COC(=O)c1c(F)cccc1F)N(C)C(=O)OCc1ccccc1 (configuration not stated) | < 500 | – | – | –
7 | CC(C)CC(NC(=O)OCc1ccccc1)C(=O)NC(Cc1ccccc1)C(=O)COC(=O)c1c(Cl)cccc1Cl (configuration not stated) | 11000 | 2700 | 250 | –
8 | COc1ccc(C[C@@H](C=O)NC(=O)[C@@H](NC(=O)OCc2ccccc2)C(C)C)cc1 (Cbz-Val-Tyr(Me)-aldehyde) | – | – | – | 30
9 | CC(C)CC(NC(=O)OCc1ccccc1)C(=O)NC(C)C(=O)CCl (configuration not stated) | 6000 | – | 43000 | –
10 | O=C(CNC(=O)OCc1ccccc1)NC(Cc1ccccc1)C(=O)COC(=O)c1c(Cl)ccc(S(=O)(=O)NCC(=O)OCc2ccccc2)c1Cl (configuration not stated) | 900 | – | – | –
11 | CC(C)CC(NC(=O)[C@@H](C)NC(=O)OCc1ccccc1)C(=O)NC(Cc1ccccc1)C(=O)COC(=O)c1c(F)cccc1F (some centres not stated) | 31000 | 300 | 100 | –
12 | CC(C)CC(NC(=O)OCc1ccccc1)C(=O)NC(Cc1ccccc1)C(=O)COC(=O)c1c(Cl)ccc(S(=O)(=O)CCN2CCOCC2)c1Cl (configuration not stated) | 30000 | 38000 | 80 | –
13 | CC(C)CC(NC(=O)OCc1ccccc1)C(=O)NCC(=O)COC(=O)c1c(Cl)ccc(OCCN2CCOCC2)c1Cl (configuration not stated) | 6000 | – | – | –
14 | CC(C)CC(NC(=O)OCc1ccccc1)C(=O)NC(Cc1ccccc1)C(=O)CCl (stereo not drawn) (Cbz-Leu-Phe-CH2Cl; configuration not given here) | 5500 | – | 2500 | –
15 | CC(C)C(NC(=O)OCc1ccccc1)C(=O)NC(Cc1ccccc1)C(=O)COC(=O)c1c(Cl)ccc(S(=O)(=O)CCN2CCOCC2)c1Cl (configuration not stated) | 20000 | 63000 | 5500 | –
16 | CC(C)CC(NC(=O)OCc1ccccc1)C(=O)NC(C)C(=O)COC(=O)c1c(Cl)ccc(S(=O)(=O)N2CCOCC2)c1Cl (configuration not stated) | 14000 | – | – | –
17 | CC(C)C[C@H](NC(=O)[C@@H]1CCCN1C(=O)OCc1ccccc1)C(=O)N[C@@H](Cc1ccccc1)C(=O)COC(=O)c1c(F)cccc1F | 26500 | – | 11000 | –
18 | CC(C)CC(NC(=O)OCc1ccccc1)C(=O)NC(Cc1ccccc1)C(=O)COC(=O)c1c(F)cccc1F (configuration not stated) | 9000 | – | – | –
19 | O=C[C@H](Cc1ccccc1)NC(=O)[C@H](CCc1ccccc1)NC(=O)OCc1ccccc1 (Cbz-[hPhe]-Phe-aldehyde) | – | – | – | 270
20 | CC(NC(=O)OCc1ccccc1)C(=O)NCC(=O)COC(=O)c1c(Cl)cccc1Cl (configuration not stated) | < 500 | – | – | –
21 | O=C(N[C@@H](Cc1ccccc1)C(=O)N[C@@H](Cc1ccccc1)C(=O)CCl)OCc1ccccc1 (Cbz-Phe-Phe-CH2Cl) | < 500 | – | – | –
22 | CC(C)CC(NC(=O)OCc1ccccc1)C(=O)NCC(=O)COC(=O)c1c(Cl)ccc(S(=O)(=O)N2CCOCC2)c1Cl (configuration not stated) | 23000 | 160000 | 260000 | –
23 | CC(NC(=O)C(Cc1ccccc1)NC(=O)OCc1ccccc1)C(=O)COC(=O)c1c(Cl)ccc(OCCN2CCOCC2)c1Cl (configuration not stated) | < 500 | 180000 | 150000 | –
24 | CC(C)C[C@H](NC(=O)CNC(=O)OCc1ccccc1)C(=O)N[C@@H](Cc1ccccc1)C(=O)CCl (Cbz-Gly-Leu-Phe-CH2Cl) | 3300 | – | 2700 | –
25 | CC(C)C[C@H](NC(=O)OCc1ccccc1)C(=O)N[C@H](C=O)Cc1ccccc1 (Cbz-Leu-Phe-aldehyde) | – | – | – | 35
26 | C[C@H](NC(=O)OCc1ccccc1)C(=O)N[C@H](C=O)Cc1ccccc1 | – | – | – | 140
27 | CC(NC(=O)C(Cc1ccccc1)NC(=O)OCc1ccccc1)C(=O)CCl (configuration not stated) | < 500 | – | 220000 | –

Row | Structure (SMILES) | k obs / 1 (Calpain 1 (Homo sapiens)) [M⁻¹ s⁻¹] | k obs / 1 [1] [M⁻¹ s⁻¹] | k obs / 1 [2] [M⁻¹ s⁻¹] | IC50 (Calpain 1) [nM]
28 | CC(C)CC(NC(=O)OCc1ccccc1)C(=O)NC(Cc1ccc(O)cc1)C(=O)CCl (stereo not drawn) (Cbz-Leu-Tyr-CH2Cl; configuration not given here) | 1500 | – | 2000 | –
29 | CC(C)CC(NC(=O)[C@@H](Cc1ccccc1)NC(=O)OCc1ccccc1)C(=O)NC(Cc1ccccc1)C(=O)COC(=O)c1c(F)cccc1F (some centres not stated) | 1000 | 100 | 100 | –
30 | CC(C)CC(NC(=O)[C@@H](C)NC(=O)OCc1ccccc1)C(=O)NCC(=O)COC(=O)c1c(Cl)ccc(OCCN2CCOCC2)c1Cl (some centres not stated) | < 500 | – | – | –
31 | CC(C)CC(NC(=O)OCc1ccccc1)C(=O)NC(Cc1ccc(O)cc1)C(=O)COC(=O)c1c(Cl)cccc1Cl (configuration not stated) | 28000 | 33000 | 1600 | –
32 | CC(C)CC(NC(=O)CNC(=O)OCc1ccccc1)C(=O)NC(Cc1ccccc1)C(=O)COC(=O)c1c(F)cccc1F (configuration not stated) | 15000 | 14000 | 800 | –
33 | O=C(CNC(=O)OCc1ccccc1)NC(Cc1ccccc1)C(=O)COC(=O)c1c(Cl)cccc1Cl (configuration not stated) | 700 | – | – | –
34 | CC(C)CC(NC(=O)OCc1ccccc1)C(=O)NC(Cc1ccc(O)cc1)C(=O)COC(=O)c1c(F)cccc1F (configuration not stated) | 7000 | – | – | –
35 | CC(C)CC(NC(=O)OCc1ccccc1)C(=O)NCC(=O)CCl (configuration not stated) (Cbz-[ξL]-Gly-CH2Cl) | 31000 | 500000 | 170000 | –
36 | CC(NC(=O)C(Cc1ccccc1)NC(=O)OCc1ccccc1)C(=O)COC(=O)c1c(Cl)cccc1Cl (configuration not stated) | < 500 | 104000 | 360000 | –
37 | CC(C)CC(NC(=O)[C@@H](C)NC(=O)OCc1ccccc1)C(=O)NC(Cc1ccccc1)C(=O)COC(=O)c1c(Cl)ccc(OCCN2CCOCC2)c1Cl (some centres not stated) | 32000 | 28000 | 400 | –
38 | CC(C)C(NC(=O)OCc1ccccc1)C(=O)NCC(=O)COC(=O)c1c(Cl)cccc1Cl (configuration not stated) | 800 | – | – | –
39 | CC(C)CC(NC(=O)OC(C)(C)C)C(=O)NC(Cc1ccccc1)C(=O)COC(=O)c1c(F)cccc1F (configuration not stated) | 8000 | – | – | –
40 | COC(=O)N[C@H](C)C(=O)NC(CC(C)C)C(=O)NC(Cc1ccccc1)C(=O)COC(=O)c1c(F)cccc1F (some centres not stated) | 1400 | 400 | 700 | –
41 | NC(=O)CC(NC(=O)OCc1ccccc1)C(=O)NC(Cc1ccccc1)C(=O)CCl (stereo not drawn) (Cbz-Asn-Phe-CH2Cl; configuration not given here) | 600 | – | 3000 | –
42 | Cc1cccc(C)c1C(=O)OCC(=O)C(Cc1ccccc1)NC(=O)C(NC(=O)OCc1ccccc1)C(C)C (configuration not stated) | 700 | – | – | –
43 | Cc1ccc(S(=O)(=O)NC(CC(C)C)C(=O)NC(Cc2ccccc2)C(=O)COC(=O)c2c(F)cccc2F)cc1 (configuration not stated) | 1500 | – | – | –
44 | CC(C)CC(NC(=O)OCc1ccccc1)C(=O)NC(Cc1ccc(O)cc1)C(=O)COC(=O)c1c(Cl)ccc(S(=O)(=O)N2CCOCC2)c1Cl (configuration not stated) | 14000 | – | – | –
45 | CC(C)CC(NC(=O)OCc1ccccc1)C(=O)NC(Cc1ccc(O)cc1)C(=O)COC(=O)c1c(Cl)ccc(S(=O)(=O)CCN2CCOCC2)c1Cl (configuration not stated) | 54000 | 50000 | 2600 | –
46 | CC(C)CC(NC(=O)OCc1ccccc1)C(=O)NC(C)C(=O)COC(=O)c1c(Cl)ccc(OCCN2CCOCC2)c1Cl (configuration not stated) | 6000 | – | 58000 | –
47 | CC(C)CC(NC(=O)OCc1ccccc1)C(=O)NCC(=O)COC(=O)c1c(Cl)cccc1Cl (configuration not stated) | 6000 | – | – | –
48 | COC(=O)N[C@H](C)C(=O)NC(CC(C)C)C(=O)NC(Cc1ccccc1)C(=O)COC(=O)c1c(Cl)ccc(OCCN2CCOCC2)c1Cl (some centres not stated) | 43000 | 90000 | 4700 | –
49 | CC(C)C[C@H](NC(=O)OCc1ccccc1)C(=O)N[C@@H](CC(C)C)C(=O)N[C@@H](Cc1ccccc1)C(=O)CCl (Cbz-Leu-Leu-Phe-CH2Cl) | 9500 | – | 30000 | –
50 | CC(C)CC(NC(=O)OCc1ccccc1)C(=O)NC(Cc1ccccc1)C(=O)COC(=O)c1c(Cl)ccc(S(=O)(=O)N2CCOCC2)c1Cl (configuration not stated) | 17000 | – | – | –
51 | CC(C)C(NC(=O)OCc1ccccc1)C(=O)NCC(=O)COC(=O)c1c(Cl)ccc(S(=O)(=O)NCC(=O)OCc2ccccc2)c1Cl (configuration not stated) | 12000 | 120000 | 600000 | –
52 | CC(=O)Nc1cccc(Cl)c1C(=O)OCC(=O)C(C)NC(=O)C(CC(C)C)NC(=O)OCc1ccccc1 (configuration not stated) | 500 | – | – | –
53 | CC(=O)Nc1cccc(Cl)c1C(=O)OCC(=O)CNC(=O)C(CC(C)C)NC(=O)OCc1ccccc1 (configuration not stated) | 600 | – | – | –
